The source of these data is patent US20050288347A1, “Certain triazole-based compounds, compositions, and uses thereof” (priority 2004, published 2005).

SMILES strings stand for the structures. “Also recorded” adds a separate entry of the source.

The first test has as its target protein kinase. Nature of the test: HTS ATP-utilizing enzyme assay, off-chip mobility-shift format (Caliper HTS 250). The test is classed as biochemical, human. The settings on record: kinase(s) for which the compound exhibits protein kinase inhibitory activity; test compound 10 μM; active = greater than three-sigma from the mean activity of inactive compounds. In outline: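 Single-point screen at 10 μM compound in HEPES pH 7.5 buffer with Triton X-100 and BSA, 2.5 h at 20–22 °C. Substrate-to-phosphopeptide ratio measured by off-chip microfluidic mobility shift; EDTA wells as 100% and DMSO wells as 0% control, hits called at three-sigma limits.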
With `COc1ccc(-n2c(S)nnc2-c2cccnc2)cc1` [4-(4-methoxyphenyl)-5-(pyridin-3-yl)-4H-1,2,4-triazole-3-thiol], the Kinase result is reported as “ABL1”.
Take `N#CCSc1nnc(C2CCCCC2)[nH]1` [2-(5-cyclohexyl-4H-1,2,4-triazol-3-ylthio)acetonitrile]: the Kinase result was “GSK3-α”.
Still for that read-out and setting: to `C=C(C)Cn1c(S)nnc1-c1ccccc1OC` [5-(2-methoxyphenyl)-4-(2-methylallyl)-4H-1,2,4-triazole-3-thiol] belongs “CDK2-cyclinE”; to `CCOC(=O)c1cccc(NC(=O)CSc2nnc(CNc3ccc(OC)cc3)n2-c2ccc(OC)cc2)c1`, “AURORA-A; also recorded: PDGFRR-α; also recorded: CHEK2”.
Consider `NC(=O)CSc1nnc(CNc2cccc(Cl)c2)n1CCc1ccccc1`, for which the Kinase result was “CDK2-cyclinA and CDK1 and AURORA-A”.
As for `COc1ccc(-n2c(SC(C)C(=O)Nc3c(C)cccc3C)nnc2-c2ccc(O)cc2)cc1` (stereo not shown), the Kinase result is reported as “AKT1”.
The same measure, in the same setting: to `O=C(O)CSc1nnc(-c2ccc(O)cc2)n1Cc1ccco1` belongs “GSK3-β; also recorded: GSK3-α”; to `COCCn1c(SCC(=O)N2c3ccccc3Sc3ccccc32)nnc1-c1cc2ccccc2cc1O`, “DAPK1”; to `COC(=O)c1ccccc1NC(=O)CSc1nnc(CNc2cccc(Cl)c2)n1C`, “AURORA-A”.
The same measure, in the same setting: to `O=C(O)CSc1nnc(-c2ccc(S(=O)(=O)N3CCOCC3)cc2)n1-c1ccccc1` belongs “CHEK2”.
Same read-out and setting: to `CCOC(=O)c1ccc(NC(=O)CSc2nnc(-c3ccc(O)cc3)n2C)cc1` belongs “GSK3-β; also recorded: AURORA-A; also recorded: GSK3-α”; to `Cc1cc(C)nc(SCc2nnc(SCC#N)n2-c2cccc(Cl)c2)n1`, “LYNA”.
Regarding `CCc1ccc(OCc2nnc(SCC#N)n2CC)cc1` [2-(4-ethyl-5-((4-ethylphenoxy)methyl)-4H-1,2,4-triazol-3-ylthio)acetonitrile], the Kinase result was “AURORA-A”.
On the same count and under the same terms, to `COCCn1c(SCC(=O)Nc2ccccc2F)nnc1-c1cc2ccccc2cc1O` belongs “AURORA-A”; to `COC(=O)CSc1nnc(CNc2ccc(OC)cc2)n1-c1ccccc1`, “PDGFRR-α”; to `COC(=O)c1sc(NC(=O)CSc2nnc(-c3ccco3)n2C)nc1C`, “GSK3-β; also recorded: GSK3-α”.
The same measure, in the same setting: to `Cc1ccc(-n2c(SCC(=O)N3CCCCC3)nnc2-c2ccncc2)cc1` belongs “FYN”; to `COc1ccc(NCc2nnc(SCC(=O)OC(C)C)n2-c2ccc(OC)cc2)cc1`, “FYN and CDK2-cyclinE”; to `CCn1c(CNc2cccc(Cl)c2)nnc1SCC(=O)O`, “CDK2-cyclinA”.
Still for that read-out and setting: to `Cn1c(SCC(=O)c2ccc3c(c2)OCCO3)nnc1-c1ccc(O)cc1` belongs “GSK3-β and GSK3-α and MSK1”.
In the case of `NC(=O)CSc1nnc(CNc2ccc(F)cc2)n1-c1ccccc1`, the Kinase entry was “FLT-3”.
Regarding `COc1ccccc1-c1nnc(SCC(=O)Nc2ccccc2)n1C`, the Kinase entry is “AURORA-A”.
`COc1ccc(-n2c(CNc3ccccc3Cl)nnc2SCC(=O)Nc2cccc(C(C)=O)c2)cc1`: the Kinase result was “CHEK2”.
On the same count and under the same terms, to `Cc1ccc(-n2c(SCC(=O)O)nnc2-c2ccc(Cl)cc2)cc1` [2-(5-(4-chlorophenyl)-4-p-tolyl-4H-1,2,4-triazol-3-ylthio)acetic acid] belongs “DAPK1 and AKT1”; to `O=C(CSc1nnc(-c2ccc([N+](=O)[O-])cc2)n1/C=C/CN1CCOCC1)N1CCOCC1`, “FYN”.
As for `COc1ccc(-n2c(Cc3ccccc3)nnc2SCC(=O)N2c3ccccc3Sc3ccccc32)cc1`, the Kinase result was “SRC and LCK”.
With `COc1ccccc1OCc1nnc(S)n1C` [5-((2-methoxyphenoxy)methyl)-4-methyl-4H-1,2,4-triazole-3-thiol], the Kinase entry is on record as “GSK3-α”.
The same measure, in the same setting: to `COc1ccc(-n2c(SC(C)C(=O)Nc3ccc(C)cc3)nnc2-c2ccc(O)cc2)cc1` (stereo not shown) belongs “GSK3-α”; to `CCn1c(CNc2ccc(C)cc2)nnc1SCC(=O)Nc1ccccc1OC`, “AURORA-A”.
With `Cc1ccc(OCc2nnc(SC(C)C(=O)O)n2-c2ccccc2)cc1` (stereo not shown) [2-(4-phenyl-5-(p-tolyloxymethyl)-4H-1,2,4-triazol-3-ylthio)propanoic acid], the Kinase result was “AURORA-A”.

Still in this test, the particulars now being: test compound 10 μM; active = activity greater than three-sigma from the mean of the predominately inactive population for that enzyme.
For `Fc1ccc(NCc2nnc(SCCN3CCOCC3)n2-c2ccccc2)cc1`, the “protein kinase against which the compound exhibits inhibitory activity (Table 3)” value is “CDK2-cyclinA”.
Still for that read-out and setting: to `O=C(CSc1nnc(-c2ccccc2O)n1Cc1ccccc1)NNC(=O)c1ccccc1O` belongs “FYN and HCK”; to `COc1ccccc1-n1c(SCC(=O)Nc2cc(NC(=O)c3ccco3)ccc2C)nnc1-c1ccccc1O`, “AURORA-A”.
On the same count and under the same terms, to `CCn1c(SCc2ccccc2Br)nnc1-c1cc(-c2ccccc2)nc2ccccc12` [4-(5-(2-bromobenzylthio)-4-ethyl-4H-1,2,4-triazol-3-yl)-2-phenylquinoline] belongs “CHEK2”.
Still for that read-out and setting: to `CCOc1ccc(NCc2nnc(SCCN3CCOCC3)n2-c2cccc(Cl)c2)cc1` belongs “FYN and FLT-3 and PDGFRR-α”.
As for `COc1ccccc1-n1c(SC2Cc3ccccc3C2=O)nnc1-c1cccc(Cl)c1` (stereo not shown), the “protein kinase against which the compound exhibits inhibitory activity (Table 3)” value is recorded as “ROCK2”.
Still for that read-out and setting: to `Cc1ccc(CSc2nnc(Cc3ccccc3)[nH]2)cc1` [3-benzyl-5-(4-methylbenzylthio)-4H-1,2,4-triazole] belongs “AURORA-A”; to `CC1=CC(C)=NCN1SCc1nnc(SCc2ccc([N+](=O)[O-])cc2)n1Cc1ccco1`, “LYNA”; to `OCCSc1nnc(-c2cccs2)[nH]1` [2-(5-(thiophen-2-yl)-4H-1,2,4-triazol-3-ylthio)ethanol], “DYRK2; also recorded: FLT-3; also recorded: AURORA-A”.
On the same count and under the same terms, to `COc1ccccc1-n1c(SCCCC(=O)OCc2ccccc2)nnc1-c1ccccc1` [benzyl 4-(4-(2-methoxyphenyl)-5-phenyl-4H-1,2,4-triazol-3-ylthio)butanoate] belongs “AURORA-A”; to `COc1ccccc1-n1c(SCC(=O)NN(O)C(=O)c2ccccc2)nnc1-c1ccccc1O`, “FYN and FLT-3 and SYK”; to `CCN(CC)S(=O)(=O)c1ccc(-c2nnc(SCc3nnc(-c4ccccc4)o3)n2CC)cc1`, “GSK3-α”.
Same read-out and setting: to `Clc1ccccc1CSc1nncn1-c1cccnc1` [3-(3-(2-chlorobenzylthio)-4H-1,2,4-triazol-4-yl)pyridine] belongs “PDGFRR-α”.
Consider `OC(CSc1nnc(-c2ccc(Cl)c(Cl)c2)[nH]1)C(F)(F)F` (stereo not shown), for which the “protein kinase against which the compound exhibits inhibitory activity (Table 3)” value is “AURORA-A; also recorded: FLT-3; also recorded: GSK3-β”.
`CCCCSc1nnc(-c2cccnc2)[nH]1`: the “protein kinase against which the compound exhibits inhibitory activity (Table 3)” value is “AURORA-A; also recorded: FLT-3; also recorded: c-TAK1”.
For `CN(C)CCCSc1nnc(-c2ccc(OC(F)(F)F)cc2)[nH]1`, the “protein kinase against which the compound exhibits inhibitory activity (Table 3)” value is recorded as “c-TAK1; also recorded: AURORA-A; also recorded: CHEK2”.
For the compound `Cn1c(CCc2nc3ccccc3[nH]2)nnc1SCCN1CCCCC1`, the “protein kinase against which the compound exhibits inhibitory activity (Table 3)” value is on record as “AURORA-A”.
As to `Fc1ccc(CSc2nnc(-c3ccc(OC(F)(F)F)cc3)[nH]2)cc1` [3-(4-fluorobenzylthio)-5-(4-(trifluoromethoxy)phenyl)-4H-1,2,4-triazole], the “protein kinase against which the compound exhibits inhibitory activity (Table 3)” value is listed as “FLT-3; also recorded: AURORA-A”.
Same read-out and setting: to `COc1ccc(-c2nnc(SCc3ccc(Cl)cc3)n2-c2ccccc2)cc1OC` [3-(4-chlorobenzylthio)-5-(3,4-dimethoxyphenyl)-4-phenyl-4H-1,2,4-triazole] belongs “CDK1”; to `CCC(c1ccccc1)c1nnc(SCc2ccc(C(=O)O)cc2)[nH]1` (stereo not shown) [4-((5-(1-phenylpropyl)-4H-1,2,4-triazol-3-ylthio)methyl)benzoic acid], “AURORA-A”; to `COc1ccc(-c2nnc(SCCN3CCCCC3)[nH]2)cc1` [1-(2-(5-(4-methoxyphenyl)-4H-1,2,4-triazol-3-ylthio)ethyl)piperidine], “GSK3-α; also recorded: DYRK2; also recorded: GSK3-β”.
As to `OC(CSc1nnc(-c2cccs2)[nH]1)C(F)(F)F` (stereo not shown) [1,1,1-trifluoro-3-(5-(thiophen-2-yl)-4H-1,2,4-triazol-3-ylthio)propan-2-ol], the “protein kinase against which the compound exhibits inhibitory activity (Table 3)” value is “AURORA-A; also recorded: DYRK2”.
As for `COc1ccccc1-n1c(SCC(=O)N2CCCC2)nnc1-c1ccccc1O`, the “protein kinase against which the compound exhibits inhibitory activity (Table 3)” value is listed as “PRAK”.
On the same count and under the same terms, to `O=C(NCCSc1nnc(-c2ccccc2)[nH]1)c1ccccc1` [N-(2-(5-phenyl-4H-1,2,4-triazol-3-ylthio)ethyl)benzamide] belongs “GSK3-β; also recorded: DYRK2; also recorded: AURORA-A”.
For the compound `O=C(CSc1nnc[nH]1)N1c2ccccc2CCc2ccccc21`, the “protein kinase against which the compound exhibits inhibitory activity (Table 3)” value is “LCK”.
`Cn1c(SCc2ccc(Cl)cc2)nnc1-c1ccncc1` [4-(5-(4-chlorobenzylthio)-4-methyl-4H-1,2,4-triazol-3-yl)pyridine]: the “protein kinase against which the compound exhibits inhibitory activity (Table 3)” value is “AURORA-A and MSK1”.
`O=C(O)c1ccc(CSc2nnc(-c3cccnc3)[nH]2)cc1` [4-((5-(pyridin-3-yl)-4H-1,2,4-triazol-3-ylthio)methyl)benzoic acid]: the “protein kinase against which the compound exhibits inhibitory activity (Table 3)” value is listed as “AURORA-A; also recorded: DYRK2”.
For the compound `C=CCn1c(CCC2CCCC2)nnc1SCC=C(C)C` [4-allyl-3-(2-cyclopentylethyl)-5-(3-methylbut-2-enylthio)-4H-1,2,4-triazole], the “protein kinase against which the compound exhibits inhibitory activity (Table 3)” value is “DYRK2”.
